For 13 compounds, IC50, inhibition and melting point results are on record in patent US7601716B2, “Pyridopyrazines and derivatives thereof as ALK and c-Met inhibitors” (Cephalon, Inc., priority 2006, dated 2009).

Usually IC50 stands for the concentration at which inhibition is half-maximal. As a reminder, the inhibition is the percentage by which the read-out fell short of the control. What is called melting point is the temperature, or range, at which the solid turns liquid.

Molecules are shown by their SMILES.

For data set [1], the target named is T1, c-Met (cytoplasmic domain) (Homo sapiens, UniProt P08581).
T1 construct: Reactions were initiated with 30 ng/mL c-Met (cytoplasmic domain, Invitrogen Corporation #PV3143); purchased Invitrogen Corporation PV3143
T1 sequence (P08581 956-1390 limits assumed): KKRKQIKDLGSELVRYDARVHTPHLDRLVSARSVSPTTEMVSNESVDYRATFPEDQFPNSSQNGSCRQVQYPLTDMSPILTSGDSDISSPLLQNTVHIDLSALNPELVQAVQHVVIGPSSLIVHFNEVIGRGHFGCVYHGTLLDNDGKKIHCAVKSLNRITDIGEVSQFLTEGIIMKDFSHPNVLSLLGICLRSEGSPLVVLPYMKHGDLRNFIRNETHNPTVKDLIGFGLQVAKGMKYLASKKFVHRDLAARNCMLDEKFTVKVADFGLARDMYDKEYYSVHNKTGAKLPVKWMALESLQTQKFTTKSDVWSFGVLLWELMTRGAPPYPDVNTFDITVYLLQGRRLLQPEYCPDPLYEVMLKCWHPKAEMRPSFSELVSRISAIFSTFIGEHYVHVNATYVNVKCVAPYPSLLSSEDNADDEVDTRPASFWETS
In words: c-Met Kinase Assay (ELISA/TRF, PLC-γ substrate). Conditions: 3 μM ATP (Km level); read-out: c-Met Kinase Inhibition (IC50). Format: biochemical. The procedure, abridged: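 Readout is TRF of europium anti-phosphotyrosine (PT66) bound to GST–PLC-γ substrate coated at 10 μg/mL, after a 15 min, 37 °C reaction started with 30 ng/mL c-Met cytoplasmic domain. Percent inhibition plotted against log compound concentration and fitted (variable slope) for IC50.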
(In general: An ELISA detects its analyte on a solid surface through an enzyme-linked reagent.)

Data set [2] addresses baculovirus-expressed ALK (Homo sapiens, UniProt Q9UM73). In words: ALK Kinase Assay (ELISA/TRF, PLC-γ substrate). Note: 1 µM ATP (Km level). It is filed as biochemical. Conditions: read-out: ALK Kinase Inhibition (IC50). The procedure, abridged:
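IC50 values fitted by nonlinear sigmoidal regression (variable slope) of percent inhibition against log compound concentration. Read-out was TRF of Eu-N1 anti-phosphotyrosine antibody bound to phosphorylated, plate-coated GST-PLC-γ (10 µg/mL). Kinase reaction used ALK at 30 ng/ml for 15 min at 37 °C.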

The target in data set [3] is T2, c-Met (phospho-c-Met) in HT29 cells (Homo sapiens, UniProt P08581).
T2 construct: endogenous in cells; host or cells: HT29, A549 (HGF-stimulated), GTL-16
T2 sequence (P08581 25-1390): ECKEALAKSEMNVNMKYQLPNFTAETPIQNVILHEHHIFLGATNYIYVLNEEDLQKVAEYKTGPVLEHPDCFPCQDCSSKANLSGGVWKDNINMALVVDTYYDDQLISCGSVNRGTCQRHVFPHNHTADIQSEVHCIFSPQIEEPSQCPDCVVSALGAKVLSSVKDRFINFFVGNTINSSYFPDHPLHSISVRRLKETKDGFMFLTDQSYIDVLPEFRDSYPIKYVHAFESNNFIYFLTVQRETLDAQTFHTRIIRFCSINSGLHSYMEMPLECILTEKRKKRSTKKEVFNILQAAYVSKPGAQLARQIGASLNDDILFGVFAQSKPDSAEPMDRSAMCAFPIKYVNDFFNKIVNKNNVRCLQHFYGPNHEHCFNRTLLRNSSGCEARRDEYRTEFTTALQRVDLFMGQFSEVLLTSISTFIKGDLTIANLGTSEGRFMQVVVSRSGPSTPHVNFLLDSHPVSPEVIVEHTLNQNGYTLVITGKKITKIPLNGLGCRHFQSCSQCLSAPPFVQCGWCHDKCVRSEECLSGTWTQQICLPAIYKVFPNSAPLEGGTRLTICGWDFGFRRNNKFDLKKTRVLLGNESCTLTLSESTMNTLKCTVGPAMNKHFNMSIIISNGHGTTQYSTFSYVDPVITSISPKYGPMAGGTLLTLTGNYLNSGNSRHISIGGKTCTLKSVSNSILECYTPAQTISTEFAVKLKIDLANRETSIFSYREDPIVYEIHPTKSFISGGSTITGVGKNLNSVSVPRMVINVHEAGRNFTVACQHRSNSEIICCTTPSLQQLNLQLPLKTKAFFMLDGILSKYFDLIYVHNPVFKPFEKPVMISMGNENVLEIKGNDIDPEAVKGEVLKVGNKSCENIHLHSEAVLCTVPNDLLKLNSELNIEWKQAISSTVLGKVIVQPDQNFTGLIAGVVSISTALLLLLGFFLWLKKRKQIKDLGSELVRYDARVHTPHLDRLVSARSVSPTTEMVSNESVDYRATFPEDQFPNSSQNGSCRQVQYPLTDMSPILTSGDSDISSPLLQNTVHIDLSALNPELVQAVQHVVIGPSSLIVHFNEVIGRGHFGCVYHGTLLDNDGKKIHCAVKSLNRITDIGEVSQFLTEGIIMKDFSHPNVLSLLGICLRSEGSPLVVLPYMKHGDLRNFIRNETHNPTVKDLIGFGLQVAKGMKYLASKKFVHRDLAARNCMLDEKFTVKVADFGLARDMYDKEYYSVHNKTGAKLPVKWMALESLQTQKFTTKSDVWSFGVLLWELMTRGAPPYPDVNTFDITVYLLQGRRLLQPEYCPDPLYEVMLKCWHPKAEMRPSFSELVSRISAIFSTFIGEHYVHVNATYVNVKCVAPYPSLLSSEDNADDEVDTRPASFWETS
In words: c-Met Cellular Activity/Autophosphorylation Assay, HT29 cells. It is filed as cell-based. Conditions: for inhibition at 1 µM: HT-29, 1 μM compound, read-out: c-Met autophosphorylation inhibition score, HT29 Cells (1 μM); for inhibition at 3 µM: HT-29, 3 μM compound, read-out: c-Met autophosphorylation inhibition score, HT29 Cells (3 μM). As for the experimental part: (§1) HT29 and GTL-16 cells were serum starved for one hour in media containing 0.05% BSA and varying concentrations of Example compounds (1-10 μM). A549 cells were serum starved overnight in media containing 0.05% BSA then treated for one hour with Example compounds followed by a 15 minute stimulation with 50 ng/mL HGF (Peprotech, Rocky Hill, N.J.), respectively. Samples were resolved by electrophoresis on a 3-8% Tris-Acetate gel (40 ma/gel) and then transferred to a nitrocellulose membrane. Membranes were blocked for one hour at room temperature in Odyssey Blocking Buffer (Licor #927-40000) diluted 1:1 with 1×TBS. Membranes were then co-incubated overnight at 4° C. with primary antibodies [total Met (Cell Signaling, #3127) and Phospho-Met (Biosource, #44-888G) 1:1000 each in Odyssey Blocking Buffer diluted 1:1 with 1×TBS-T 0.05%]. The next day, membranes were washed and co-incubated with secondary antibodies [Goat anti mouse IRDye800 (Rockland, #610-132-121) and Goat anti rabbit Alexa fluor 700 (Molecular Probes, #A21038) 1:10,000] in Odyssey Blocking Buffer diluted 1:1 with 1×TBS-T 0.05% for one hour at room temperature protected from light. Blots were then washed and read on the Odyssey Infrared Imager. Total c-Met signal was visualized at 800 nm detection and phospho-c-Met signal was visualized at 700 nm detection.

Data set [4] deals with T3, c-Met (phospho-c-Met) in A549 cells (Homo sapiens, UniProt P08581).
T3 construct: endogenous in cells; host or cells: HT29, A549 (HGF-stimulated), GTL-16
T3 sequence (P08581 25-1390): as above
In words: c-Met Cellular Activity/Autophosphorylation Assay, A549 cells (HGF stimulated). Format: cell-based. Conditions: 50 ng/mL HGF; for inhibition at 1 µM: 1 μM compound, read-out: c-Met autophosphorylation inhibition score, A549 Cells (1 μM); for inhibition at 3 µM: 3 μM compound, read-out: c-Met autophosphorylation inhibition score, A549 Cells (3 μM). As for the experimental part:
as §1

baculovirus-expressed ALK, sequence (Q9UM73 19-1620): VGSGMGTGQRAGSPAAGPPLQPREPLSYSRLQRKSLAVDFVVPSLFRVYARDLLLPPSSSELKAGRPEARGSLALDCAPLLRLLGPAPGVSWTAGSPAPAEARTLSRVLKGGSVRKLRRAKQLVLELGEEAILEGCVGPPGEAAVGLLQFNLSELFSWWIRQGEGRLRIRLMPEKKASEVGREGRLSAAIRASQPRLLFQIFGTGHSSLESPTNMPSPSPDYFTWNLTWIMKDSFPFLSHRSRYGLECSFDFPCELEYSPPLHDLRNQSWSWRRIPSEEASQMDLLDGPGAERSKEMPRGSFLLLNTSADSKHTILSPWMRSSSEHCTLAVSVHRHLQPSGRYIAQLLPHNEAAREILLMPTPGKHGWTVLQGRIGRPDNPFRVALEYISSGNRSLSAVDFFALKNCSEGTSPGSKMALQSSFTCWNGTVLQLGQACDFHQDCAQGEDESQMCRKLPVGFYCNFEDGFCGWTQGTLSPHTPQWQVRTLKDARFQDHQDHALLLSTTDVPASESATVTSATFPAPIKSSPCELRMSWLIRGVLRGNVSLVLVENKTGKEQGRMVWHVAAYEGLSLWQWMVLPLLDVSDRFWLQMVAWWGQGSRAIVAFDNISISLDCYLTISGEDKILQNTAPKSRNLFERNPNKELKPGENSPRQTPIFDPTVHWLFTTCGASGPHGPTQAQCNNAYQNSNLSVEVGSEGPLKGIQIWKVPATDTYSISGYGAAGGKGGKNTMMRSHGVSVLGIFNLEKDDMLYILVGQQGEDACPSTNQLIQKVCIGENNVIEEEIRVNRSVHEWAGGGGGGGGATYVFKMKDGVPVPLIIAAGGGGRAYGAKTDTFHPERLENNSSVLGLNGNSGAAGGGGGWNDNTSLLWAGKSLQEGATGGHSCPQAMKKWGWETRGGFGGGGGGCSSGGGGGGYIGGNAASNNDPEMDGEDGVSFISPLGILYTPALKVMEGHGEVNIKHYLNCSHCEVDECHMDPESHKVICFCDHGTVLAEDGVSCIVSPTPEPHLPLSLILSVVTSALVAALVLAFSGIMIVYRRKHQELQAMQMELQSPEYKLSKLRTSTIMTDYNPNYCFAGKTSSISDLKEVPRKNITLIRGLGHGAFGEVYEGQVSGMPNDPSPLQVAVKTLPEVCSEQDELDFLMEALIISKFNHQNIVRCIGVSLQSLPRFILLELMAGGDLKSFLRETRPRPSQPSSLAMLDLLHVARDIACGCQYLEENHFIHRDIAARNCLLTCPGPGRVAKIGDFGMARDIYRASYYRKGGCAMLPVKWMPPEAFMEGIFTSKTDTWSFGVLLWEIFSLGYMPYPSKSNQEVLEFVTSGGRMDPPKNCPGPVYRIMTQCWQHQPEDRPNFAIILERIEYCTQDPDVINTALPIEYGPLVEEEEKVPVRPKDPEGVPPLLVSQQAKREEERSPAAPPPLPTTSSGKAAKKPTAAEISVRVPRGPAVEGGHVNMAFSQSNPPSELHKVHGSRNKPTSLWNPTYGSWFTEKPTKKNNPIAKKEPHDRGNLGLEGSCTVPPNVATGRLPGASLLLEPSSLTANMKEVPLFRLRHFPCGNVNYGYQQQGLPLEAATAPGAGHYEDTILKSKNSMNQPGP

Regarding `O=C(c1ccc(-c2cnc3c(c2)N(Cc2cc(Cl)ccc2C(F)(F)F)CCN3)cc1)N1CCC(N2CCOCC2)CC1` [Example 287, (4-{1-[5-Chloro-2-(trifluoromethyl)benzyl]-1,2,3,4-tetrahydropyrido[2,3-b]pyrazin-7-yl}phenyl)-(4-morpholin-4-yl-piperidin-1-yl)methanone], the IC50 in data set [1] was 100 to 1000 nM; in data set [2], less than 100 nM. The inhibition at 1 µM in data set [3] and in data set [4] was 0 to 25% in each case. The inhibition at 3 µM in data set [3] fell in the range of 26 to 50%; in data set [4], 0 to 25%.

`Nc1ccc(-c2cnc3c(c2)N(Cc2c(F)ccc(F)c2Cl)CCN3)cn1` [Example 184, 5-[1-(2-Chloro-3,6-difluorobenzyl)-1,2,3,4-tetrahydropyrido[2,3-b]pyrazin-7-yl]-pyridin-2-ylamine]: the melting point is more than 200 °C. The half-maximal inhibitory concentration (IC50) in data set [1] was in the range of 1000 to 10000 nM. The IC50 in data set [2] is less than 100 nM. For the same compound, in data set [3], the inhibition at 1 µM is 51 to 75% and the inhibition at 3 µM was in the range of 76 to 100%.

Consider `CN1CCN(C(=O)c2ccc(-c3cnc4c(c3)N(Cc3c(F)ccc(F)c3Cl)CCN4)cc2)CC1` [Example 104, {4-[1-(2-Chloro-3,6-difluorobenzyl)-1,2,3,4-tetrahydropyrido[2,3-b]pyrazin-7-yl]phenyl}-(4-methylpiperazin-1-yl)methanone], for which the values for the IC50 in data set [1] and in data set [2] were 100 to 1000 nM and less than 100 nM, respectively. Besides, the inhibition at 1 µM in data set [3] is 0 to 25%. Moreover, the inhibition at 3 µM in data set [3] was in the range of 51 to 75%.

Turning to `CN1CCN(c2ccc(-c3cnc4c(c3)N(S(=O)(=O)c3cc(F)ccc3F)CCN4)cn2)CC1` [Example 122, 1-(2,5-Difluorobenzenesulfonyl)-7-[6-(4-methylpiperazin-1-yl)pyridin-3-yl]-1,2,3,4-tetrahydropyrido[2,3-b]pyrazine], the half-maximal inhibitory concentration (IC50) in data set [1] fell in the range of 1000 to 10000 nM; in data set [2] it was 100 to 1000 nM. Moreover, the inhibition at 1 µM in data set [3] was in the range of 26 to 50%; in data set [4], 0 to 25%. The inhibition at 3 µM in data set [3] and in data set [4] was 26 to 50% in each case.

`CN1CCN(c2ccc(-c3cnc4c(c3)N(Cc3cc(Cl)ccc3C(F)(F)F)CCN4)cn2)CC1` [Example 118, 1-(5-Chloro-2-trifluoromethylbenzyl)-7-[6-(4-methylpiperazin-1-yl)pyridin-3-yl]-1,2,3,4-tetrahydropyrido[2,3-b]pyrazine]: the inhibition at 1 µM fell in the range of 26 to 50% in data set [3] and 0 to 25% in data set [4]. For the same compound, the results for the inhibition at 3 µM in data set [3] and in data set [4] were 51 to 75% and 26 to 50%, respectively.

For the compound `CN1CCN(c2ccc(-c3cnc4c(c3)N(Cc3cc(C(F)(F)F)ccc3Cl)CCN4)cn2)CC1` [Example 120, 1-(2-Chloro-5-trifluoromethylbenzyl)-7-[6-(4-methylpiperazin-1-yl)pyridin-3-yl]-1,2,3,4-tetrahydropyrido[2,3-b]pyrazine], the IC50 in data set [1] fell in the range of 1000 to 10000 nM; in data set [2], 100 to 1000 nM. Further, the inhibition at 1 µM was in the range of 26 to 50% in data set [3] and 0 to 25% in data set [4]. Besides, the inhibition at 3 µM in data set [3] and in data set [4] was 26 to 50% throughout.

In the case of `Fc1ccc(F)c(CN2CCNc3ncc(-c4ccnc(N5CCOCC5)c4F)cc32)c1Cl` [Example 102, 1-(2-Chloro-3,6-difluorobenzyl)-7-(3-fluoro-2-morpholin-4-yl-pyridin-4-yl)-1,2,3,4-tetrahydropyrido[2,3-b]pyrazine], the IC50 was in the range of 1000 to 10000 nM in data set [1] and 100 to 1000 nM in data set [2]. Also, the values for the inhibition at 1 µM in data set [3] and in data set [4] were 26 to 50% and 0 to 25%, respectively. Moreover, the inhibition at 3 µM in data set [3] was in the range of 51 to 75%; in data set [4] it was 26 to 50%.

As to `O=C(c1ccc(-c2cnc3c(c2)N(Cc2cc(F)ccc2F)CCN3)cn1)N1CCOCC1` [Example 76, {5-[1-(2,5-Difluorobenzyl)-1,2,3,4-tetrahydropyrido[2,3-b]pyrazin-7-yl]-pyridin-2-yl}morpholin-4-yl-methanone], the melting point was in the range of 111 to 113 °C. For the same compound, the 50% inhibitory concentration (IC50) in data set [1] fell in the range of 1000 to 10000 nM. Moreover, the IC50 in data set [2] lay within 100 to 1000 nM. Also, in data set [3], the inhibition at 1 µM fell in the range of 0 to 25% and the inhibition at 3 µM lay in the range of 26 to 50%. Moreover, in data set [4], the inhibition at 1 µM fell in the range of 0 to 25% and the inhibition at 3 µM fell in the range of 0 to 25%.

For the compound `CC(C)(C)OC(=O)NCC#Cc1cnc2c(c1)N(Cc1cc(Cl)ccc1Cl)CCN2` [Example 168, {3-[1-(2,5-Dichlorobenzyl)-1,2,3,4-tetrahydropyrido[2,3-b]pyrazin-7-yl]prop-2-ynyl}carbamic acid tert-butyl ester], the figures for the IC50 in data set [1] and in data set [2] were 10000 to 100000 nM and 1000 to 10000 nM, respectively. The inhibition at 1 µM in data set [3] and in data set [4] was 0 to 25% throughout. The results for the inhibition at 3 µM in data set [3] and in data set [4] were 26 to 50% and 0 to 25%, respectively.

For the compound `O=C(O)c1ccc(-c2cnc3c(c2)N(Cc2cc(F)ccc2F)CCN3)cn1` [Example 72, 5-[1-(2,5-Difluorobenzyl)-1,2,3,4-tetrahydropyrido[2,3-b]pyrazin-7-yl]-pyridine-2-carboxylic acid], the melting point is 240 °C (dec.). Moreover, the 50% inhibitory concentration (IC50) in data set [1] was 1000 to 10000 nM. For the same compound, in data set [2], the IC50 fell in the range of 100 to 1000 nM. Besides, in data set [3], the inhibition at 1 µM lay within 26 to 50% and the inhibition at 3 µM lay in the range of 26 to 50%. Also, in data set [4], the inhibition at 1 µM is 0 to 25% and the inhibition at 3 µM is 0 to 25%.

The compound `O=C1CNc2ncc(I)cc2N1Cc1cccnc1Cl` [Example 299, 1-(2-Chloropyridin-3-ylmethyl)-7-iodo-3,4-dihydro-1H-pyrido[2,3-b]pyrazin-2-one] returned a melting point of 249 °C. In data set [1], the half-inhibitory concentration (IC50) is more than 100000 nM. In data set [2], the IC50 is 1000 to 10000 nM.

The compound `CN1CCN(C(=O)c2ccc(-c3cnc4c(c3)N(C(=O)c3cc(F)ccc3F)CCN4)cc2)CC1` [Example 88, (2,5-Difluorophenyl)-{7-[4-(4-methylpiperazine-1-carbonyl)phenyl]-3,4-dihydro-2H-pyrido[2,3-b]pyrazin-1-yl}-methanone] registered a melting point of 201 to 203 °C. Further, the IC50 in data set [1] was 1000 to 10000 nM. In addition, in data set [2], the IC50 was 10000 to 100000 nM.

In the case of `CN(C)CC(=O)NCC#Cc1cnc2c(c1)N(Cc1c(Cl)cccc1Cl)CCN2` [Example 172, N-{3-[1-(2,6-Dichlorobenzyl)-1,2,3,4-tetrahydropyrido[2,3-b]pyrazin-7-yl]prop-2-ynyl}-2-dimethylamino-acetamide], the melting point is more than 200 °C. In addition, the half-maximal inhibitory concentration (IC50) in data set [1] was 10000 to 100000 nM. The half-inhibitory concentration (IC50) in data set [2] lay in the range of 100 to 1000 nM.
